Results published in patent publication US6440901B1, “Calcium chloride fruit blossom thinning agent” (priority 2000, dated 2002).

What was measured:
[1] = system: “Lutz” Red Delicious Apples; details: for Mean Fruit Area per Limb: Azwell; for Mean Fruit per 100 Clusters: fruit set
Procedure: A second field trial to test the effects of calcium chloride as a bloom thinning agent was performed at an orchard located in Azwell, Washington, by the Washington Tree Fruit Research Commission on a commercial block of a Red Delicious apple cultivar of the variety “Lutz.” Three areas of the block's apples were each treated with one of three alternative chemical thinning compounds. […] Calcium chloride was used in the second area and “Crocker's” lime and sulfur was used in the third area. A fourth area of the apple block was utilized as a control group and treated with water as a control. The treatments were all performed with conventional test methodologies and procedures. Other than the application of the thinning compounds, all four blocks were managed without differentiation.

[2] = system: “WVC” Fuji Apples; details: for Mean Fruit Area per Limb: East Wenatchee, airblast spray at bloom; for Mean Fruit per 100 Clusters: fruit set
Procedure: A first field trial to test the effects of calcium chloride as a bloom thinning agent was performed in an orchard located in East Wenatchee, Washington, by the Washington Tree Fruit Research Commission on a commercial block of a Fuji apple cultivar of the variety “WVC.” Two areas of the block's apples were each treated with two alternative chemical thinning compounds. Calcium chloride was used in the first area. […] A third area of the apple block was utilized as a control group and treated with water. The treatments were all performed with conventional test methodologies and procedures.
Other than the application of the thinning compounds, all three blocks were managed without differentiation. All treatments were applied utilizing standard airblast sprayers and spreader-stickers as appropriate. The experiments were in a randomized complete block design with 2 to 4 replications. […] Results of this trial are listed in TABLE 1 and shown in the graphs of FIGS. 1 and 3.

[3] = system: apples; test: Overall observations of both field trials (damage, thinning, fruit L/D); assay type: in vivo, apple
Procedure: A series of field trials comparing the calcium chloride composition of the present invention to other alternative chemical thinners were performed to verify efficacy as a bloom thinner. The trials followed labeling recommendations and best management practices for all applications. Two of these trials are discussed as follows, but are not intended to specifically limit the invention: […]

Compound	% Flower Clusters Blanked [1] [%]	% Flower Clusters Doubled [1] [%]	% Flower Clusters Singled [1] [%]	% Flower Clusters Tripled [1] [%]	% Flower Clusters w/4+ Fruit [1] [%]	Mean Fruit Area per Limb [1] [cm^2]	Mean Fruit per 100 Clusters [1]	% Flower Clusters Blanked [2] [%]	% Flower Clusters Doubled [2] [%]	% Flower Clusters Singled [2] [%]	% Flower Clusters Tripled [2] [%]	% Flower Clusters w/4+ Fruit [2] [%]	Mean Fruit Area per Limb [2] [cm^2]	Mean Fruit per 100 Clusters [2]	impact on average fruit length over diameter (L/D) ratio ([3]; harvested fruit)	difference in bloom thinning between treatments ([3]; with feedback on hand thinning time per tree, ATS versus calcium chloride)
ammonium thiosulfate [ATS, reference compound]	47.0	12.8	38.8	1.5	0.0	2.7	69	38.2	11.9	47.4	1.9	0.7	5.8	84		
[Ca+2].[Cl-].[Cl-] [CaCl, calcium chloride]	41.7	12.7	44.4	1.0	0.2	2.6	73	40.0	12.5	45.5	2.0	0.1	5.0	79	minimally impacted	no consistent, significant differences between ATS and calcium chloride
